ChEMBL document CHEMBL1155502, “Modulation of 11beta-hydroxysteroid dehydrogenase type 1 activity by 1,5-substituted 1H-tetrazoles” (Bioorg Med Chem Lett, 2010)

Test: Metabolic stability in human liver microsomes assessed as compound remaining after 30 mins
Assay type: ADME, Microsome
Settings: read-out: Stability

Row | Structure (SMILES) | remaining at 0.5 h
1 | O=C(CCc1nnnn1-c1ccccc1)C1CCCCC1 | 11%
2 | O=C(CCc1nnnn1Cc1ccccc1)c1ccccc1 | 33%
3 | O=C(CCn1nnnc1-c1cccnc1)c1ccccc1 | 81%
4 | O=C(CCn1nnnc1-c1ccc2c(c1)OCO2)c1ccccc1 | 11%
5 | COc1cccc(-n2nnnc2CCC(=O)c2ccccc2)c1 | 6%
6 | O=C(CCc1nnnn1-c1ccccc1)c1cccc(F)c1 | 21%
7 | CC(C)(C)C(=O)CS(=O)(=O)c1nnnn1-c1ccccc1 | 4%
8 | Cc1ccccc1-n1nnnc1CCC(=O)c1ccccc1 | 22%
9 | COc1ccc(-n2nnnc2CCC(=O)c2ccccc2)cc1 | 12%
10 | O=C(CCc1nnnn1-c1ccc(Cl)cc1)c1ccccc1 | 34%
11 | O=C(CCn1nnnc1-c1cnccn1)c1ccccc1 | 31%
12 | O=C(CCn1nnnc1-c1ncccn1)c1ccccc1 | 53%
13 | O=C(CCc1nnnn1C1CCCc2ccccc21)c1ccccc1 (configuration not stated) | 7%

More lines, now with the values ahead:

Row | remaining at 0.5 h | Structure (SMILES)
14 | 4% | O=C(COc1nnnn1-c1ccccc1)c1ccccc1
15 | 20% | O=C(CCn1nnnc1-c1cccc(Cl)c1)c1ccccc1
16 | 29% | O=C(CCn1nnnc1-c1ccccc1)c1ccccc1
17 | 9% | COc1ccccc1-c1nnnn1CCC(=O)c1ccccc1
18 | 14% | COc1cccc(C(=O)CCc2nnnn2-c2ccccc2)c1
19 | 37% | N#Cc1ccc(-n2nnnc2CCC(=O)c2ccccc2)cc1
20 | 25% | CC(C)(C)C(=O)C[S+]([O-])c1nnnn1-c1ccccc1 (configuration not stated)
21 | 8% | O=C(CCc1nnnn1-c1ccccc1)c1cccc(Cl)c1
22 | 14% | O=C(CCc1nnnn1C1CCCCC1)c1ccccc1
23 | 88% | O=C(CCc1nnnn1-c1ccccc1)c1ccccc1
24 | 6% | O=C(CCn1nnnc1-c1ccsc1)c1ccccc1
25 | 73% | O=C(CCc1nnnn1C1CC1)c1ccccc1
26 | 2% | Cc1ccc(-n2nnnc2CCC(=O)c2ccccc2)cc1
27 | 42% | COc1ccccc1-n1nnnc1CCC(=O)c1ccccc1
28 | 18% | COc1ccc(-c2nnnn2CCC(=O)c2ccccc2)cc1
29 | 5% | O=C(CCn1nnnc1-c1ccccc1Cl)c1ccccc1
30 | 2% | Cc1cccc(-n2nnnc2CCC(=O)c2ccccc2)c1
31 | 81% | O=C(CCc1nnnn1-c1cccnc1)c1ccccc1
32 | 1% | O=C(CCc1nnnn1C1CCc2ccccc21)c1ccccc1 (configuration not stated)
